Measured values published in patent US6737383B1, “Herbicidal oxadiazolidines” (priority 1999, dated 2004).

Experiments:
rape = assay: Test B pre/postemergence rape; type: in vivo, Brassica napus; details: for Rape plant response rating: scale of 0 to 10 where 0 is no effect and 10 is complete control
In short: (§1)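 Herbicidal effect was estimated by eye on a ten-point control scale after plants spent twelve to sixteen days in a greenhouse following soil or foliar treatment. Foliar sprays targeted plants at one to four leaves; all doses were formulated in a non-phytotoxic solvent with surfactant.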

wild oat = assay: Test B pre/postemergence wild oat; type: in vivo, Avena fatua; details: for Wild oats plant response rating: scale of 0 to 10 where 0 is no effect and 10 is complete control
In short: as §1

purple nutsedge = assay: Test B pre/postemergence purple nutsedge; type: in vivo, Cyperus rotundus; details: for Nutsedge plant response rating: scale of 0 to 10 where 0 is no effect and 10 is complete control
In short: as §1

surinam grass = assay: Test B pre/postemergence surinam grass; type: in vivo, Brachiaria decumbens; details: for B. signalgrass plant response rating: scale of 0 to 10 where 0 is no effect and 10 is complete control
In short: as §1

bamyardgrass = assay: Test B flood test barnyardgrass; type: in vivo, Echinochloa crus-galli; details: Pre-emergence
In short: (§2)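 Flood test on plants grown to the 2-leaf stage; treated plants kept in greenhouse twelve to sixteen days, then visually rated against controls on a 0 (no effect) to 10 (complete control) scale.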

velvetleaf = assay: Test B pre/postemergence velvetleaf; type: in vivo, Abutilon theophrasti; details: for Velvetleaf plant response rating: scale of 0 to 10 where 0 is no effect and 10 is complete control
In short: as §1

pigweed = assay: Test B pre/postemergence pigweed; type: in vivo, Amaranthus retroflexus; details: for Redroot pigweed plant response rating: scale of 0 to 10 where 0 is no effect and 10 is complete control
In short: as §1

cocklebur = assay: Test B pre/postemergence cocklebur; type: in vivo, Xanthium strumarium; details: for Cocklebur plant response rating: scale of 0 to 10 where 0 is no effect and 10 is complete control
In short: as §1

wheat = assay: Test B pre/postemergence wheat; type: in vivo, Triticum aestivum; details: for Wheat plant response rating: scale of 0 to 10 where 0 is no effect and 10 is complete control
In short: as §1

bedstraw = assay: Test B pre/postemergence bedstraw; type: in vivo, Galium aparine; details: for Bedstraw plant response rating: scale of 0 to 10 where 0 is no effect and 10 is complete control
In short: as §1

corn = assay: Test B pre/postemergence corn; type: in vivo, Zea mays; details: for Corn plant response rating: scale of 0 to 10 where 0 is no effect and 10 is complete control
In short: as §1

smallflower flatsedge = assay: Test B flood test smallflower flatsedge; type: in vivo, Cyperus difformis; details: Pre-emergence
In short: as §2

morningglory = assay: Test B pre/postemergence morningglory; type: in vivo, Ipomoea hederacea; details: for Morningglory plant response rating: scale of 0 to 10 where 0 is no effect and 10 is complete control
In short: as §1

rice = assay: Test B flood test rice; type: in vivo, Oryza sativa; details: Pre-emergence
In short: as §2

blackgrass = assay: Test B pre/postemergence blackgrass; type: in vivo, Alopecurus myosuroides; details: for Blackgrass plant response rating: scale of 0 to 10 where 0 is no effect and 10 is complete control
In short: as §1

duck salad = assay: Test B flood test duck salad; type: in vivo, Heteranthera limosa; details: Pre-emergence
In short: as §2

[1] = Postemergence, Rate 125 g/ha, scale 0 to 10, 0 is no effect, 10 is complete control
[2] = Postemergence, Rate 250 g/ha, scale 0 to 10, 0 is no effect, 10 is complete control
[3] = Preemergence, Rate 62 g/ha, scale 0 to 10 (0 no effect, 10 complete control)
[4] = Rate 500 g/ha, Postemergence, scale 0 to 10, 0 no effect, 10 complete control
[5] = Rate 62 g/ha, flood test species, visual evaluation after twelve to sixteen days
[6] = Rate 125 g/ha, flood test species, scale 0 to 10 where 0 is no effect and 10 is complete control
[7] = Rate 250 g/ha, flood-test species, scale 0 to 10, 0 is no effect, 10 is complete control
[8] = Rate 500 g/ha, flood test species, scale 0 to 10 (0 no effect, 10 complete control)

## CC(C)N(C(=O)n1oc(=O)n(C)c1=O)c1ccc(F)cc1F [Compound 368]
rape; [1]
  Plant response rating, Rape: 0
rape; [2]
  Plant response rating, Rape: 2
rape; [3]
  Plant response rating, Rape: 0
rape; Preemergence, Rate 125 g/ha
  Rape plant response rating (0 to 10 scale): 0
rape; Preemergence, Rate 250 g/ha
  Rape plant response rating: 6
rape; Preemergence, Rate 500 g/ha
  Rape plant response rating: 10
rape; Rate 62 g/ha, Postemergence
  Rape plant response rating: 0
rape; [4]
  Plant response rating, Rape: 5
Wild oat; [1]
  Plant response rating, Wild oats: 0
Wild oat; [2]
  Plant response rating, Wild oats: 3
Wild oat; [3]
  Plant response rating, Wild oats: 4
Wild oat; Preemergence, Rate 125 g/ha
  Wild oats plant response rating (0 to 10 scale): 9
Wild oat; Preemergence, Rate 250 g/ha
  Wild oats plant response rating: 10
Wild oat; Preemergence, Rate 500 g/ha
  Wild oats plant response rating: 10
Wild oat; Rate 62 g/ha, Postemergence
  Wild oats plant response rating: 0
Wild oat; [4]
  Plant response rating, Wild oats: 5
Purple nutsedge; [1]
  Plant response rating, Nutsedge: 0
Purple nutsedge; [2]
  Plant response rating, Nutsedge: 0
Purple nutsedge; [3]
  Plant response rating, Nutsedge: 0
Purple nutsedge; Preemergence, Rate 125 g/ha
  Nutsedge plant response rating (0 to 10 scale): 2
Purple nutsedge; Preemergence, Rate 250 g/ha
  Nutsedge plant response rating: 10
Purple nutsedge; Preemergence, Rate 500 g/ha
  Nutsedge plant response rating: 10
Purple nutsedge; Rate 62 g/ha, Postemergence
  Nutsedge plant response rating: 0
Purple nutsedge; [4]
  Plant response rating, Nutsedge: 0
Surinam grass; [1]
  Plant response rating, B. signalgrass: 5
Surinam grass; [2]
  Plant response rating, B. signalgrass: 6
Surinam grass; [3]
  Plant response rating, B. signalgrass: 1
Surinam grass; Preemergence, Rate 125 g/ha
  B. signalgrass plant response rating (0 to 10 scale, 0 is no effect, 10 is complete control): 6
Surinam grass; Preemergence, Rate 250 g/ha
  B. signalgrass plant response rating: 8
Surinam grass; Preemergence, Rate 500 g/ha
  B. signalgrass plant response rating: 8
Surinam grass; Rate 62 g/ha, Postemergence
  B. signalgrass plant response rating: 0
Surinam grass; [4]
  Plant response rating, B. signalgrass: 7
bamyardgrass; [5]
  Plant response rating, Barnyardgrass (0 to 10 scale, 0 is no effect, 10 is complete control): 0
bamyardgrass; [6]
  Barnyardgrass plant response rating: 0
bamyardgrass; [7]
  Barnyardgrass plant response rating: 0
bamyardgrass; [8]
  Barnyardgrass plant response rating: 7
velvetleaf; [1]
  Plant response rating, Velvetleaf: 0
velvetleaf; [2]
  Plant response rating, Velvetleaf: 3
velvetleaf; [3]
  Plant response rating, Velvetleaf: 4
velvetleaf; Preemergence, Rate 125 g/ha
  Velvetleaf plant response rating (0 to 10 scale): 7
velvetleaf; Preemergence, Rate 250 g/ha
  Velvetleaf plant response rating: 10
velvetleaf; Preemergence, Rate 500 g/ha
  Velvetleaf plant response rating: 10
velvetleaf; Rate 62 g/ha, Postemergence
  Velvetleaf plant response rating: 0
velvetleaf; [4]
  Plant response rating, Velvetleaf: 7
pigweed; [1]
  Plant response rating, Redroot pigweed: 3
pigweed; [2]
  Plant response rating, Redroot pigweed: 4
pigweed; [3]
  Plant response rating, Redroot pigweed: 10
pigweed; Preemergence, Rate 125 g/ha
  Redroot pigweed plant response rating (0 to 10 scale): 10
pigweed; Preemergence, Rate 250 g/ha
  Redroot pigweed plant response rating: 10
pigweed; Preemergence, Rate 500 g/ha
  Redroot pigweed plant response rating: 10
pigweed; Rate 62 g/ha, Postemergence
  Redroot pigweed plant response rating: 2
pigweed; [4]
  Plant response rating, Redroot pigweed: 7
cocklebur; [1]
  Plant response rating, Cocklebur: 2
cocklebur; [2]
  Plant response rating, Cocklebur: 3
cocklebur; [3]
  Plant response rating, Cocklebur: 0
cocklebur; Preemergence, Rate 125 g/ha
  Cocklebur plant response rating (0 to 10 scale): 0
cocklebur; Preemergence, Rate 250 g/ha
  Cocklebur plant response rating: 0
cocklebur; Preemergence, Rate 500 g/ha
  Cocklebur plant response rating: 0
cocklebur; Rate 62 g/ha, Postemergence
  Cocklebur plant response rating: 0
cocklebur; [4]
  Plant response rating, Cocklebur: 5
wheat; [1]
  Plant response rating, Wheat: 3
wheat; [2]
  Plant response rating, Wheat: 4
wheat; [3]
  Plant response rating, Wheat: 0
wheat; Preemergence, Rate 125 g/ha
  Wheat plant response rating (0 to 10 scale): 4
wheat; Preemergence, Rate 250 g/ha
  Wheat plant response rating: 8
wheat; Preemergence, Rate 500 g/ha
  Wheat plant response rating: 10
wheat; Rate 62 g/ha, Postemergence
  Wheat plant response rating: 0
wheat; [4]
  Plant response rating, Wheat: 6
bedstraw; [2]
  Plant response rating, Bedstraw: 4
bedstraw; [3]
  Plant response rating, Bedstraw: 0
bedstraw; Preemergence, Rate 125 g/ha
  Bedstraw plant response rating (0 to 10 scale): 2
bedstraw; Preemergence, Rate 250 g/ha
  Bedstraw plant response rating: 10
bedstraw; Preemergence, Rate 500 g/ha
  Bedstraw plant response rating: 10
bedstraw; Rate 62 g/ha, Postemergence
  Bedstraw plant response rating: 0
corn; [1]
  Plant response rating, Corn: 5
corn; [2]
  Plant response rating, Corn: 6
corn; [3]
  Plant response rating, Corn: 3
corn; Preemergence, Rate 125 g/ha
  Corn plant response rating (0 to 10 scale): 6
corn; Preemergence, Rate 250 g/ha
  Corn plant response rating: 7
corn; Preemergence, Rate 500 g/ha
  Corn plant response rating: 10
corn; Rate 62 g/ha, Postemergence
  Corn plant response rating: 0
corn; [4]
  Plant response rating, Corn: 7
Smallflower flatsedge; [5]
  Plant response rating, S. Flatsedge (0 to 10 scale, 0 is no effect, 10 is complete control): 0
Smallflower flatsedge; [6]
  S. Flatsedge plant response rating: 0
Smallflower flatsedge; [7]
  S. Flatsedge plant response rating: 2
Smallflower flatsedge; [8]
  S. Flatsedge plant response rating: 4
morningglory; [1]
  Plant response rating, Morningglory: 4
morningglory; [2]
  Plant response rating, Morningglory: 5
morningglory; [3]
  Plant response rating, Morningglory: 0
morningglory; Preemergence, Rate 125 g/ha
  Morningglory plant response rating (0 to 10 scale): 1
morningglory; Preemergence, Rate 250 g/ha
  Morningglory plant response rating: 3
morningglory; Preemergence, Rate 500 g/ha
  Morningglory plant response rating: 5
morningglory; Rate 62 g/ha, Postemergence
  Morningglory plant response rating: 2
morningglory; [4]
  Plant response rating, Morningglory: 7
rice; [5]
  Plant response rating, Rice (0 to 10 scale, 0 is no effect, 10 is complete control): 0
rice; [6]
  Rice plant response rating: 0
rice; [7]
  Rice plant response rating: 0
rice; [8]
  Rice plant response rating: 5
blackgrass; [1]
  Plant response rating, Blackgrass: 7
blackgrass; [2]
  Plant response rating, Blackgrass: 8
blackgrass; [3]
  Plant response rating, Blackgrass: 8
blackgrass; Preemergence, Rate 125 g/ha
  Blackgrass plant response rating (0 to 10 scale): 9
blackgrass; Preemergence, Rate 250 g/ha
  Blackgrass plant response rating: 10
blackgrass; Preemergence, Rate 500 g/ha
  Blackgrass plant response rating: 10
blackgrass; Rate 62 g/ha, Postemergence
  Blackgrass plant response rating: 7
blackgrass; [4]
  Plant response rating, Blackgrass: 8
Duck salad; [5]
  Plant response rating, Ducksalad (0 to 10 scale, 0 is no effect, 10 is complete control): 0
Duck salad; [6]
  Ducksalad plant response rating: 0
Duck salad; [7]
  Ducksalad plant response rating: 0
Duck salad; [8]
  Ducksalad plant response rating: 0
